Test results as given in paper PMC9366509 (Inorganic chemistry, 2022).
Read-outs that look alike come from different tables or passages of the source.

Key:
[1] = Chelator protonation constants by pH potentiometry; format: physicochemical; details: I = 0.1 M KCl, 25 °C
[2] = for pPb (pM), -log [Pb]free: [Pb]tot = 10^-6 M, [L]tot = 10^-5 M; for pPb (pM), -log [Pb]free / log K'Pb (conditional stability constant): pH 7.4, 25 °C, I = 0.1 M
[3] = cited from earlier work
[4] = Pb2+ complex, cited from earlier work
EDTA challenge = format: physicochemical; details: 20-fold excess EDTA, after 72 hours; 203Pb complex
[5] = Non-radioactive Pb2+ challenge; format: physicochemical; details: 20-fold excess non-radioactive Pb, after 72 hours; 203Pb complex
[6] = pH 7.4
[7] = Pb2+ complex, I = 0.1 M KCl, 25 °C

Row | Structure (SMILES) | log K1 (protonation constant) [1] | log K2 (protonation constant) [1] | log K3 (protonation constant) [1] | log K4 (protonation constant) [1] | log KPbHL [2, 7] | log KPbL (thermodynamic stability constant, log KML) [2, 7] | pPb (pM), -log [Pb]free [2] | log K'Pb (conditional stability constant) [2] | also measured
1 | c1ccc(CN2CCOCCN(Cc3ccccn3)CCN(Cc3ccccn3)CCOCCN(Cc3ccccn3)CC2)nc1 [Crown-4Py, 4,7,13,16-tetrakis(pyridin-2-ylmethyl)-1,10-dioxa-4,7,13,16-tetraazacyclooctadecane] | 7.91(4) | 7.33(4) | 4.64(1) | 4.00(6) | 5.22(1) | 13.29(5) | 13.40 | 12.45 | log KPbH2L [2, 7]: 3.50(8)
2 | c1ccc(CN2CCOCCOCCN(Cc3ccccn3)CCOCCOCC2)nc1 [NOON-2Py, 7,16-bis(pyridin-2-ylmethyl)-1,4,10,13-tetraoxa-7,16-diazacyclooctadecane] | – | – | – | – | – | – | 12.29 | 11.33 | log K1 (protonation constant) ([3]; I = 0.1 M KCl): 7.44; log K2 (protonation constant) ([3]; I = 0.1 M KCl): 6.26; log K3 (protonation constant) ([3]; I = 0.1 M KCl): 1.38; log KPbL (thermodynamic stability constant, log KML) ([4]; I = 0.1 M KCl): 11.67
3 | NC(=O)CN1CCN(CC(N)=O)CCN(CC(N)=O)CCN(CC(N)=O)CC1 [DOTAM, 1,4,7,10-tetrakis(carbamoylmethyl)-1,4,7,10-tetraazacyclododecane] | – | – | – | – | – | – | – | – | log K1 (protonation constant) ([3]; I = 0.1 M NaNO3): 7.70(1); log K2 (protonation constant) ([3]; I = 0.1 M NaNO3): 6.21(1); log KPbL (thermodynamic stability constant, log KML) ([4]; I = 0.1 M NaNO3): >19
4 | c1ccc(CN2CCN(Cc3ccccn3)CCN(Cc3ccccn3)CCN(Cc3ccccn3)CC2)nc1 [Cyclen-4Py, 1,4,7,10-tetrakis(pyridin-2-ylmethyl)-1,4,7,10-tetraazacyclododecane] | 10.05(4) | 7.53(2) | 3.54(7) | 2.23(6) | 2.06(9) | 19.95(3) | 17.88 | 16.93 | complex remained intact, EDTA challenge (EDTA challenge): 98.1 ± 0.5%; complex remained intact, non-radioactive Pb2+ challenge [5]: 98.0 ± 0.4%
5 | O=C(O)CN1CCN(CC(=O)O)CCN(CC(=O)O)CCN(CC(=O)O)CC1 [DOTA, 1,4,7,10-tetraazacyclododecane-1,4,7,10-tetraacetic acid] | – | – | – | – | – | – | – | – | log K1 (protonation constant) ([3]; I = 0.1 M Me4NNO3): 12.09; log K2 (protonation constant) ([3]; I = 0.1 M Me4NNO3): 9.76; log K3 (protonation constant) ([3]; I = 0.1 M Me4NNO3): 4.559; log K4 (protonation constant) ([3]; I = 0.1 M Me4NNO3): 4.09; log KPbL (thermodynamic stability constant, log KML) ([4]; I = 0.1 M NaCl): 25.3(1)[39]; log K'Pb (conditional stability constant) [6]: 15.64
